Converted amounts (≈) assume the structure as drawn.

One may read the solubility as how much of the substance goes into solution per volume.

Data set [1] can be described thus: Solubilization in water or 30% PEG-8000/water, freeze-drying and reconstitution; concentration by HPLC (Example 1). The conditions noted are these: for PEG solutions, freeze dried and reconstituted Test 1 / PEG solutions, freeze dried and reconstituted Test 2: 30% PEG-8000, reconstituted with water; for PEG solutions, freeze dried and reconstituted Test 1 / PEG solutions, freeze dried and reconstituted Test 2 / CPEG / Cw: target 200 µM; for CPEG: 30% PEG-8000 / water, 50-fold dilution of 10 mM DMSO stock; for CPEG / Cw: filtered 0.45 µm; for Cw: aqueous solution, 50-fold dilution of 10 mM DMSO solution; for PEG solutions, reconstituted and diluted 1:10 Test 1 / PEG solutions, reconstituted and diluted 1:10 Test 2: diluted 1:10 with water, target 20 µM; for PEG solutions, reconstituted and diluted 1:10 Test 1: 3% PEG-8000, Test 1; for PEG solutions, reconstituted and diluted 1:10 Test 2: 3% PEG-8000, Test 2. The method, then:
Materials and methods. […] The following compounds were obtained from Fluka - Riedel deHaën: phenylacetic acid, p-toluenesulphonamide, carbazol (Vetranal analytical standard), Polyethylene glycol 8000. Stock solutions were prepared in dimethylsulfoxide (Sigma-Aldrich, ACS spectrophotometric grade) at 10 mM concentration by weighing an appropriate amount of each compound and adding the computed DMSO volume with a calibrated variable volume pipet (Eppendorf). A solution of PEG-8000 (30%, w/w) in water in a 50 mL centrifuge tube was prepared by weighing 15.0 g of PEG-8000 and adding water up to 50.0 g.
Solutions were analysed using an Agilent 1100 chromatograph with the following HPLC method: • Column: Waters X-terra 4.6x50 mm, 3.5 µm • Mobile phase A: water/acetonitrile (97/3 by volume) containing 0.1% trifluoroacetic acid • Mobile phase B: acetonitrile containing 0.1% trifluoroacetic acid • Flow = 1 mL/min, injection = 10 µL, detection wavelength 220 nm (8 nm bandwidth) with reference at 400 nm (40 nm bandwidth). • Gradient 1: from 100% A to 60% A in 6 min, down to 40% A in 1 min, followed by 3 min re-equilibration at 100% A. • Gradient 2: from 70% A to 30% A in 6 min, 1 min isocratic elution at 30% A, followed by 3 min re-equilibration at 70% A.
The following solutions were prepared by 50-fold dilution of the DMSO stock solutions: • Target concentration: 200 µM in water • Target concentration: 200 µM in 30% PEG-8000 / water
After equilibration (1 day at room temperature), all solutions were filtered through 0.45 µm cellulose filters (ProFill, 25 mm syringe filters, Alltech). Aliquots were placed in HPLC vials and submitted to analysis. Two 1 mL aliquots of each 30% PEG solution were placed into 14x100 mm pre-weighed test tubes. These tubes were weighed, and placed in liquid nitrogen to freeze the solution, and finally submitted to freeze-drying in a Lio-5P apparatus (5Pascal, Trezzano sul Naviglio, Italy). After one day, the tubes were weighed and water was added with a micropipette in order to match the original solution weight. A fraction of these solutions was diluted 1:10 with water (target concentration: 20 µM).

For data set [2] the following is noted: decimal logarithm of the molar aqueous solubility; cited from earlier work.
The nature of data set [3]: Solubility in various aqueous PEG media, by HPLC (Example 2). Particulars: aqueous with cosolvent or surfactant or cyclodextrin, kinetic from dmso stock, Average solubility, N=3. The method, then: Materials and methods. […] The following compounds were obtained from Fluka - Riedel deHaën: carbazol (Vetranal analytical standard), Polyethylene glycol 8000, Polyethylene glycol 20000, Polyethylene glycol 400. […] Solutions of PEG-8000 and PEG-20000 in water (30%, w/w) were prepared in 50 mL centrifuge tubes by weighing 15.0 g of the corresponding PEG and adding water up to 50.0 g. A solution containing PEG-8000 (10%, w/w) and PEG-400 (20%, w/w) was similarly prepared by mixing 5 g PEG-8000 with […], and adding water up to 50 g.
Results. […] Starting from DMSO stock solutions, dilute solutions with a nominal concentration of 200 µM were prepared by 50-fold dilution with one of three different aqueous PEG medium. After equilibration for 1 day at room temperature, these solutions were filtered through 0.45 µm cellulose filters (ProFill, 25 mm syringe filters, Alltech). Aliquots were placed in HPLC vials and submitted to analysis.

Take `O=C(O)Cc1ccccc1` [Compound 1, Phenylacetic acid]: in data set [1], the “PEG solutions, freeze dried and reconstituted Test 1” value is given as 181 µM; the “PEG solutions, freeze dried and reconstituted Test 2” value is listed as 187 µM; the CPEG is 198 µM; the Cw is 200 µM. In data set [1], the “PEG solutions, reconstituted and diluted 1:10 Test 1” value worked out at 17.7 µM; the “PEG solutions, reconstituted and diluted 1:10 Test 2” value was found to be 17.8 µM. Besides, the LogSw in data set [2] is given as -0.89.

Regarding `Cc1ccc(S(N)(=O)=O)cc1` [Compound 2, p-Toluenesulphonamide], in data set [2], the LogSw is given as -1.74.

For `CCOC(=O)c1ccc(O)cc1` [Compound 3, Ethyl-p-hydroxybenzoate], the LogSw in data set [2] is on record as -2.35.

For the compound `CC(=O)CC(c1ccccc1)c1c(O)c2ccccc2oc1=O` (stereo not drawn) [Compound 6, Warfarin], in data set [1], the “PEG solutions, freeze dried and reconstituted Test 1” value stood at 199 µM; the “PEG solutions, freeze dried and reconstituted Test 2” value stood at 199 µM; the CPEG is recorded as 198 µM; the Cw stood at 155 µM. For the same compound, in data set [1], the “PEG solutions, reconstituted and diluted 1:10 Test 1” value is 20.2 µM; the “PEG solutions, reconstituted and diluted 1:10 Test 2” value was found to be 20.4 µM. Further, the LogSw in data set [2] was -4.26.

With `c1ccc2c(c1)[nH]c1ccccc12` [Compound 8, Carbazol], the “measured concentration after ten-fold dilution of the reconstituted PEG lyophilized samples” value in data set [1] (3% PEG-8000, range over both tests and both compounds) was in the range of 19.0 to 19.4 µM. Moreover, in data set [1], the “PEG solutions, freeze dried and reconstituted Test 1” value came out at 195 µM; the “PEG solutions, freeze dried and reconstituted Test 2” value was 195 µM; the CPEG was 196 µM; the Cw stood at 8.6 µM. Further, in data set [1], the “PEG solutions, reconstituted and diluted 1:10 Test 1” value is on record as 19.0 µM; the “PEG solutions, reconstituted and diluted 1:10 Test 2” value came to 19.2 µM. Besides, in data set [3] (20% PEG-400 + 10% PEG-8000, nominal 200 µM), the solubility at 1 day was found to be 187 µM. In data set [3] (30% PEG-8000, nominal 200 µM), this compound yielded a solubility at 1 day of 194 µM (≈ 32.4 µg/mL). In data set [3] (30% PEG-20000, nominal 200 µM), this compound came in with a solubility at 1 day of 188 µM (≈ 31.4 µg/mL). In addition, in data set [2], the LogSw is -5.27.

The record behind these values is patent publication EP1908513A1, “Method for preparing and using chemical collections” (priority 2006, dated 2008).
